Drawing on US20150291598A1 (NOVARTIS AG, priority 2012, published 2015), this text covers EC50 for 13 compounds.

The structures appear in SMILES notation. Like-named read-outs stand apart in the source and are kept apart here.

Assay [1] has as its system P. falciparum (NF54 or 3D7 strain). The assay can be described thus: Assay for P. falciparum proliferation in infected human blood cells (SYBR Green). The note with it: Plasmodium falciparum, Erythrocyte. The class given is cell-based, Plasmodium falciparum. The method in brief:
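NF54 or 3D7 parasites in O+ human erythrocytes at 2.5% hematocrit and 0.3% parasitemia final, exposed to compounds 72 h at 37 °C under 93% N2/4% CO2/3% O2.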

For another assay, the system named is P. yoelii Sporozoite. The assay can be described thus: P. yoelii sporozoite invasion assay in HepG2-A16-CD81EGFP liver cells (immunofluorescence quantification of EEFs). The assay is classed as cell-based. The note with it: Plasmodium yoelii. The source says:
Compounds of the invention can be assayed to measure their capacity to inhibit proliferation of parasites in liver cells. The proliferation is quantified by determine the number of infected cells by immunofluorescence.
Due to the difficulty of successfully infecting immortalized human liver cell lines with the human malaria sporozoites (liver-stage parasite), rodent malaria sporozoites from Plasmodium yoelii (17XNL) and P. berghei (ANKA) are the preferred surrogate. Sporozoites are obtained from Anopheles stephensi mosquitoes supplied by the New York University Insectary, which ships the malaria-infected mosquitoes 10-13 days following the ingestion of an infective blood meal.
A transgenic HepG2 cell line expressing the tetraspanin CD81 receptor (HepG2-A16-CD81^EGFP) is used to increase the infectivity rate of rodent-malaria sporozoites into human cells. HepG2-A16-CD81^EGFP cells are stably transformed to express a GFP-CD81 fusion protein. A continuous in vitro culture of this line was maintained at 37° C. in 4% CO2 in complete media (CM) which contains: DMEM (Invitrogen, Carlsbad, USA) supplemented with 10% FCS, 0.29 mg/ml glutamine, 100 units penicillin and 100 μg/ml streptomycin (SigmaAldrich, USA).
P. yoelii Sporozoite Invasion Assay
These plates are incubated at 37° C. with 4% CO2 overnight. Two hours prior to infection, 50 nl of compound dissolved in DMSO (0.1% final DMSO concentration per well) were transferred with a PinTool (GNF Systems) into the assay plates (10 μM final concentration). A 1:3 serial dilution of atovaquone (10 μM at the highest final concentration) and wells treated only with DMSO were used as positive and negative controls, respectively.
Freshly dissected salivary glands from infected mosquitoes were homogenized in a glass tissue grinder, filtered twice through Nylon cell strainers (40 μm pore size, BD Falcon) and counted using a hemocytometer. The assay plate with HepG2-A16-CD81^EGFP cells and compound were then infected with 8×10^3 sporozoites per well and the plates are subjected to a centrifugal force of 650×g to pellet the sporozoites onto the liver cell monolayer. The assay plate is incubated at 37° C. for 2 hours to permit sporozoite invasion, then the media is aspirated from the media plate, and replaced with 50 μl CM (containing a 5× concentration of penicillin/streptomycin; 500 units penicillin and 0.5 mg streptomycin per ml) per well. 50 nl of compound is re-introduced by PinTool and the assay plate incubated for 48 hours at 37° C. before quantification of infected cells by immunofluorescence.
Atovaquone and uninfected wells were used as controls on each plate. Two replicate plates are tested for each assay.
Stained EEFs were then quantified using the Opera Confocal High Content Screening System (PerkinElmer, Waltham, USA). Images were collected using a 20× objective lens (20×/0.45 NA, LWD Plan Fluor, Olympus) at a binning of 2, using a 365 nm Xeon arc lamp illumination to detect the Hoechst-labeled nuclei and 635 nm laser line to excite DyLight649-labeled parasites. The image resolution yielded was approximately 0.66 μm/pixel (˜0.43 μm 2/pixel). All images were analyzed using a custom Acapella™ (PerkinElmer) script parametrized for this assay. In brief, images from fields inside the well were first discarded as out-of focus when the intensity in the nuclear channel was too low. Then, HepG2-A16-CD81^EGFP cells were counted by detecting the nuclei labeled with Hoechst using the nuclei detection libraries available with Acapella™. Parasites were later segmented using the αPyHSP70 immuno-labeling signal, using a custom script library. Once the objects were segmented from the picture, morphological-based (e.g. size, roundness, etc) and intensity-based features were measured for each object detected in the image (i.e. nuclei and parasites). Infection ratio was set as the ratio between parasite number and number of nuclei counted in images considered as “in-focus”.

The mark [2] stands for this setting: 72 h, NF54 or 3D7 infected human erythrocytes, 72 hours, read-out: EC50 (nM), inhibitory efficacy in delaying P. falciparum proliferation in infected human blood cells.
Where [3] appears, read: HepG2-A16-CD81EGFP cells, 48 hours, read-out: EC50 (nM), inhibitory efficacy in delaying the proliferation of P. yoelii sporozoite in infected liver cells.
The mark [4] stands for this setting: 72 h, read-out: EC50 (nM), inhibitory efficacy in delaying P. falciparum proliferation in infected human blood cells.
[5] abbreviates: read-out: EC50, P. yoelii Sporozoite Invasion Assay.
[6] abbreviates: infected human red blood cells, read-out: EC50, P. falciparum Proliferation Assay.

`CN(C(=O)c1cn2c(-c3ccc(C(N)=O)cc3)cnc2cn1)c1ccc(F)cc1` [Compound 11, 3-(4-carbamoylphenyl)-N-(4-fluorophenyl)-N-methylimidazo[1,2-a]pyrazine-6-carboxamide]: the EC50 in assay [1] (setting [2]) was found to be 74 nM; in the assay on P. yoelii Sporozoite (setting [3]) it was 56 nM.
The matching figures for `CNC(=O)c1ccc(-c2cnc3cnc(C(=O)N(C)c4ccc(C#N)cc4)cn23)cc1` [Compound 38, N-(4-cyanophenyl)-N-methyl-3-[4-(methylcarbamoyl)phenyl]imidazo[1,2-a]pyrazine-6-carboxamide]: 131 nM and 290 nM.
As to `CN(C(=O)c1cn2c(-c3ccc(C(F)(F)F)cc3)cnc2cn1)c1ccc(C#N)cc1` [Compound 76, N-(4-cyanophenyl)-N-methyl-3-[4-(trifluoromethyl)phenyl]imidazo[1,2-a]pyrazine-6-carboxamide], the EC50 amounted to 35 nM in assay [1] (setting [4]) and 263 nM in the assay on P. yoelii Sporozoite (setting [3]).
For `CN(Cc1cn2c(-c3ccc(C(F)(F)F)cc3)cnc2cn1)c1ccc(C#N)cc1` [Compound 213, 4-[methyl({3-[4-(trifluoromethyl)phenyl]imidazo[1,2-a]pyrazin-6-yl}methyl)amino]benzonitrile], the EC50 was 41 nM in assay [1] (setting [2]), below 50 nM in the assay on P. yoelii Sporozoite (setting [5]) and 14 nM in the assay with P. yoelii Sporozoite (setting [3]).
As to `CN(Cc1cn2c(-c3ccc(C(N)=O)cc3)cnc2cn1)c1ccc(F)cc1` [Compound 222, 4-(6-{[(4-fluorophenyl)(methyl)amino]methyl}imidazo[1,2-a]pyrazin-3-yl)benzamide], the EC50 in assay [1] (setting [2]) was 30 nM; in assay [1] (setting [6]) it was below 50 nM; in the assay on P. yoelii Sporozoite (setting [5]), below 50 nM; in the assay with P. yoelii Sporozoite (setting [3]) it was 7 nM.
In the case of `CN(Cc1cn2c(-c3ccc(C(N)=O)cc3)cnc2cn1)c1ccc(C#N)cc1` [Compound 223, 4-(6-{[(4-cyanophenyl)(methyl)amino]methyl}imidazo[1,2-a]pyrazin-3-yl)benzamide], the EC50 in assay [1] (setting [2]) was 25 nM; in the assay on P. yoelii Sporozoite (setting [5]), below 50 nM; with P. yoelii Sporozoite (setting [3]), 11 nM.
For `CNC(=O)c1ccc(-c2cnc3cnc(C(=O)N(C)c4ccc(Cl)cc4)cn23)cc1` [Compound 228, N-(4-chlorophenyl)-N-methyl-3-[4-(methylcarbamoyl)phenyl]imidazo[1,2-a]pyrazine-6-carboxamide], the EC50 in assay [1] (setting [4]) was 58 nM; in the assay with P. yoelii Sporozoite (48 h, read-out: EC50 (nM), inhibitory efficacy in delaying the proliferation of P. yoelii sporozoite in infected liver cells), 32 nM; in the assay with P. yoelii Sporozoite (setting [5]) it was below 50 nM.
As to `CC(=O)Nc1ccc(-c2cnc3cnc(C(=O)N(C)c4ccc(C#N)cc4)cn23)cn1` [Compound 236, N-(4-cyanophenyl)-3-(6-acetamidopyridin-3-yl)-N-methylimidazo[1,2-a]pyrazine-6-carboxamide], the EC50 in assay [1] (setting [2]) turned out to be 127 nM; in the assay with P. yoelii Sporozoite (setting [3]) it was 189 nM.
As to `CN(Cc1cn2c(-c3ccc(C(N)=O)cc3)cnc2cn1)c1ccc(Cl)cc1` [Compound 477, 4-(6-{[(4-chlorophenyl)(methyl)amino]methyl}imidazo[1,2-a]pyrazin-3-yl)benzamide], the EC50 in assay [1] (setting [2]) is 9 nM; in assay [1] (setting [6]), below 50 nM; in the assay with P. yoelii Sporozoite (setting [5]), below 50 nM; in the assay with P. yoelii Sporozoite (setting [3]), 11 nM.
For the compound `COC(=O)Nc1ccc(-c2cnc3cnc(C(=O)N(C)c4ccc(C#N)cc4)cn23)cc1` [Compound 482, methyl N-(4-{6-[(4-cyanophenyl)(methyl)carbamoyl]imidazo[1,2-a]pyrazin-3-yl}phenyl)carbamate], the EC50 in assay [1] (setting [2]) was found to be 37 nM; in the assay on P. yoelii Sporozoite (setting [3]) it was 64 nM.
In the case of `CN(C(=O)c1cn2c(-c3ccc(C(N)=O)cc3)cnc2cn1)c1ccc(Cl)cc1` [Compound 486, 3-(4-carbamoylphenyl)-N-(4-chlorophenyl)-N-methylimidazo[1,2-a]pyrazine-6-carboxamide], the EC50 is 42 nM in assay [1] (setting [2]), below 50 nM in assay [1] (setting [6]) and 120 nM with P. yoelii Sporozoite (setting [3]).
In the case of `CN(C(=O)c1cn2c(-c3ccc4c(cnn4C)c3)cnc2cn1)c1ccc(C#N)cc1` [Compound 487, N-(4-cyanophenyl)-N-methyl-3-(1-methyl-1H-indazol-5-yl)imidazo[1,2-a]pyrazine-6-carboxamide], the figures for the EC50 (in assay [1] (setting [2]); in the assay with P. yoelii Sporozoite (setting [3])) were 96 nM and 2940 nM, respectively.
The matching figures for `Cc1ccc(N(C)C(=O)c2cn3c(-c4ccc(C(F)(F)F)cc4)cnc3cn2)nc1` [Compound 491, N-methyl-N-(5-methylpyridin-2-yl)-3-[4-(trifluoromethyl)phenyl]imidazo[1,2-a]pyrazine-6-carboxamide]: 199 nM and 1110 nM.
